In US12162867B2, “Inhibitors of RNA helicase DHX9 and uses thereof” (ACCENT THERAPEUTICS, INC., priority 2022, dated 2024):
Like-named read-outs stand apart in the source and are kept apart here.

Experiments:
Format in all cases: cell-based
LS411N cells = test: DHX9 cellular proliferation assay (CellTiter-Glo), LS411N (CRC-MSI); settings: Homo sapiens, LS-411N, LS411N, performed at Pharmaron, read-out: LS411N (CRC-MSI-H) Antiproliferative IC50
NCI-H747 cells = test: DHX9 cellular proliferation assay (CellTiter-Glo), NCI-H747 (CRC-MSS); settings: Homo sapiens, performed at Pharmaron, read-out: H747 (CRC-MSS) Antiproliferative IC50
[1] = tested on: circBRIP1 in HCT116 cells; test: DHX9 circBRIP1 cellular target engagement TaqMan Multiplex assay (qPCR); settings: Homo sapiens, read-out: DHX9 Cellular Target Engagement EC50
[2] = HCT-116, circBRIP1, HCT116 cells, * Taqman assay was used
[3] = HCT-116, 72 h, circBRIP1, HCT116 cells, 72 hours, Taqman assay (marked *)

| IC50 (NCI-H747 cells; NCI-H747, NCI-H747) | EC50 [1, 2] | IC50 (NCI-H747 cells; NCI-H747, NCI-H747, CRC-MSS) | EC50 [1, 3] | Compound | IC50 (LS411N cells) | IC50 (LS411N cells; CRC-MSI-H) |
| --- | --- | --- | --- | --- | --- | --- |
| > 10000 nM | 17.2 nM | – | – | COC(=O)N1CCN(c2cnc(-c3cc(C(=O)Nc4cc(Cl)cc(NS(C)(=O)=O)c4)cn3C)c(F)c2)CC1 [Example 464] | 247 nM | – |
| – | – | > 10000 nM | 96.8 nM | CCS(=O)(=O)Nc1cc(Cl)cc(NC(=O)c2cc(-c3ncc(F)cc3F)c(C)s2)c1 [Example 347] | – | 160 nM |
| > 10000 nM | 55.8 nM | – | – | Cc1sc(C(=O)Nc2cc(Cl)cc(NS(C)(=O)=O)c2)cc1-c1ncc(N2CCC3(C2)CC3(F)F)cc1F (stereo not drawn) [Example 480] | 150 nM | – |
| – | – | 3620 nM | 25.1 nM | Cc1sc(C(=O)Nc2cc(Cl)cc(NS(C)(=O)=O)c2)cc1-c1ccc(OC(C)(C)C)cn1 [Example 380] | – | 54.1 nM |
| 3790 nM | 83.8 nM | – | – | Cn1cc(C(=O)Nc2cc(Cl)cc(NS(C)(=O)=O)c2)cc1-c1ncc(N2CCC(F)(F)CC2)cc1F [Example 469] | 522 nM | – |
| 5810 nM | 18.2 nM | – | – | COc1cnc(-c2cc(C(=O)Nc3cc(Cl)cc(NS(C)(=O)=O)c3)cn2C)c(F)c1 [Example 454] | 218 nM | – |
| 7770 nM | 90 nM | – | – | Cc1cc(C(=O)Nc2cc(Cl)cc(NS(C)(=O)=O)c2)cn1-c1ncc(N2CC(C(F)(F)F)C2)cn1 [Example 694] | 80.4 nM | – |
| 2060 nM | 22.5 nM | – | – | Cc1sc(C(=O)Nc2cc(Cl)cc(NS(C)(=O)=O)c2)cc1-c1ncc(N2CC(C(F)(F)F)C2)cn1 [Example 489] | 51 nM | – |
| – | – | 6250 nM | 43.2 nM | COc1cnc(-c2cc(C(=O)Nc3cc(Cl)cc(NS(C)(=O)=O)c3)sc2C)c(C)c1 [Example 361] | – | 361 nM |
| 6460 nM | 92.6 nM | – | – | Cc1cc(C(=O)Nc2cc(Cl)cc(NS(C)(=O)=O)c2)cn1-c1ncc(N2CC(F)(F)C2)cc1OCC(F)(F)F [Example 708] | 140 nM | – |
| 8780 nM | 21.6 nM | – | – | COC1CCN(c2ccc(-c3cc(C(=O)Nc4cc(Cl)cc(NS(C)(=O)=O)c4)cn3C)nc2)CC1 [Example 515, N-(3-chloro-5-methanesulfonamidophenyl)-5-[5-(4-methoxypiperidin-1-yl)pyridin-2-yl]-1-methyl-1H-pyrrole-3-carboxamide] | 89.3 nM | – |
| 2600 nM | 31.8 nM | – | – | Cc1sc(C(=O)Nc2cc(Cl)cc(NS(C)(=O)=O)c2)cc1-c1ncc(N2CCC(F)(F)C2)cc1F [Example 484] | 66.2 nM | – |
| 4140 nM | 108 nM | – | – | Cc1sc(C(=O)Nc2cc(Cl)cc(NS(C)(=O)=O)c2)cc1-c1ncc(N2CC3C(C2)C3(C)C)cc1F (stereo not drawn) [Example 476] | 140 nM | – |
| 3500 nM | 127 nM | – | – | Cn1cc(C(=O)Nc2cc(Cl)cc(NS(C)(=O)=O)c2)cc1-c1cccc(N2CC(F)(F)C2)n1 [Example 551] | 225 nM | – |
| 8370 nM | 45.8 nM | – | – | CN1C(=O)N(c2ccc(-c3cc(C(=O)Nc4cc(Cl)cc(NS(C)(=O)=O)c4)cn3C)nc2)C(=O)C1(C)C [Example 603] | 1090 nM | – |
| – | – | 8060 nM | 34.5 nM | CCS(=O)(=O)Nc1cc(Cl)cc(NC(=O)c2cc(-c3ncc(F)cc3OC)c(C)s2)c1 [Example 354] | – | 71.5 nM |
| 8760 nM | 31 nM | – | – | Cc1sc(C(=O)Nc2cc(Cl)cc(NS(C)(=O)=O)c2)cc1-c1ncc(C2(F)COC2)cn1 [Example 680] | 208 nM | – |
| 4200 nM | 30.1 nM | – | – | Cc1sc(C(=O)Nc2cc(Cl)cc(NS(C)(=O)=O)c2)cc1-c1ncc(N2CC(F)(F)C2)cc1F [Example 532, N-(3-chloro-5-methanesulfonamidophenyl)-4-[5-(3,3-difluoroazetidin-1-yl)-3-fluoropyridin-2-yl]-5-methylthiophene-2-carboxamide] | 100 nM | – |
| 7900 nM | 54.9 nM | – | – | Cc1sc(C(=O)Nc2cc(Cl)cc(NS(C)(=O)=O)c2)cc1-c1ncc(N(C)S(C)(=O)=O)cn1 [Example 720] | 452 nM | – |
| > 10000 nM | 57.3 nM | – | – | Cn1cc(C(=O)Nc2cc(Cl)cc(NS(C)(=O)=O)c2)cc1-c1ncc(N2CCC3(CC2)CC3(F)F)cc1F [Example 518] | 203 nM | – |
| > 10000 nM | 33.7 nM | – | – | Cc1sc(C(=O)Nc2cc(Cl)cc(NS(C)(=O)=O)c2)cc1-c1ccc(N2CCN(C(=O)C3CC3)CC2)cn1 [Example 590, N-(3-chloro-5-methanesulfonamidophenyl)-4-[5-(4-cyclopropanecarbonylpiperazin-1-yl)pyridin-2-yl]-5-methylthiophene-2-carboxamide] | 533 nM | – |
| 6630 nM | 13.5 nM | – | – | Cc1sc(C(=O)Nc2cc(Cl)cc(NS(C)(=O)=O)c2)cc1-c1ncc(N2CCC3(CC2)COC3)cc1F [Example 474] | 87.2 nM | – |
| > 10000 nM | 18 nM | – | – | CCS(=O)(=O)Nc1cc(Cl)cc(NC(=O)c2cc(-c3ncc(N4CC(F)(F)C4)cn3)c(C)s2)c1 [Example 463] | 59.3 nM | – |

| IC50 (NCI-H747 cells; NCI-H747, NCI-H747) | EC50 [1, 2] | IC50 (NCI-H747 cells; NCI-H747, NCI-H747, CRC-MSS) | EC50 [1, 3] | Compound | IC50 (LS411N cells) | IC50 (LS411N cells; CRC-MSI-H) |
| --- | --- | --- | --- | --- | --- | --- |
| 5400 nM | 10.7 nM | – | – | Cc1sc(C(=O)Nc2cc(Cl)cc(NS(C)(=O)=O)c2)cc1-c1ccc(C2CN(CC(F)(F)F)C2)cn1 [Example 710] | 48.1 nM | – |
| > 10000 nM | 44.4 nM | – | – | Cn1cc(C(=O)Nc2cc(Cl)cc(NS(C)(=O)=O)c2)cc1-c1ncc(N2CC3(C2)CC(F)(F)C3)cn1 [Example 492] | 209 nM | – |
| – | – | > 10000 nM | 58.2 nM | Cc1sc(C(=O)Nc2cc(Cl)cc(NS(C)(=O)=O)c2)cc1-c1ncc(F)cc1F [Example 349] | – | 154 nM |
| 3620 nM | 84.5 nM | – | – | Cn1cc(C(=O)Nc2cc(Cl)cc(NS(C)(=O)=O)c2)cc1-c1ccc(C2CCN(CC(F)(F)F)CC2)cn1 [Example 619] | 178 nM | – |
| 8030 nM | 51.2 nM | – | – | CCS(=O)(=O)Nc1cc(Cl)cc(NC(=O)c2cc(C)n(-c3ncc(N4CC(F)(F)C4)cn3)c2)c1 [Example 423] | 269 nM | – |
| > 10000 nM | 35.6 nM | – | – | COC1CN(c2cnc(-n3cc(C(=O)Nc4cc(Cl)cc(NS(C)(=O)=O)c4)cc3C)nc2)C1 [Example 404] | 138 nM | – |
| > 10000 nM | 24.1 nM | – | – | Cc1sc(C(=O)Nc2cc(Cl)cc(NS(=O)(=O)CCO)c2)cc1-c1ncccc1OCc1cncc(F)c1 [Example 626] | 137 nM | – |
| 5360 nM | 25.4 nM | – | – | Cc1sc(C(=O)Nc2cc(Cl)cc(NS(C)(=O)=O)c2)cc1-c1ncc(N2CC(F)(F)C2)cc1OCC(F)(F)F [Example 707] | 68.5 nM | – |
| > 10000 nM | 4.7 nM | – | – | COc1cc(N2CC(F)(F)C2)cnc1-c1cc(C(=O)Nc2cc(Cl)cc(NS(C)(=O)=O)c2)sc1C [Example 535] | 93.3 nM | – |
| 3640 nM | 105 nM | – | – | COc1cc(C(F)(F)F)cnc1-c1cc(C(=O)Nc2cc(Cl)cc(NS(C)(=O)=O)c2)sc1C [Example 550] | 352 nM | – |
| 7260 nM | 93.3 nM | – | – | Cc1sc(C(=O)Nc2cc(F)cc(NS(C)(=O)=O)c2)cc1-c1ncc(N2CC(C(F)(F)F)C2)cc1F [Example 501] | 274 nM | – |
| 6550 nM | 54.6 nM | – | – | CCOc1cnc(-c2cc(C(=O)Nc3cc(Cl)cc(NS(C)(=O)=O)c3)cn2C)c(F)c1 [Example 453] | 218 nM | – |
| – | – | > 10000 nM | 28.6 nM | COc1cc(F)cnc1-c1cc(C(=O)Nc2cc(Cl)cc(NS(C)(=O)=O)c2)sc1C [Example 351] | – | 82 nM |
| > 10000 nM | 24.8 nM | – | – | Cc1sc(C(=O)Nc2cc(Cl)cc(NS(C)(=O)=O)c2)cc1-c1ccc(N2CC3(C2)CC(F)(F)C3)cn1 [Example 499] | 65.7 nM | – |
| 7050 nM | 68.6 nM | – | – | Cn1cc(C(=O)Nc2cc(Cl)cc(NS(C)(=O)=O)c2)cc1-c1ccc(N2CCCC2)cn1 [Example 402] | 167 nM | – |
| 6290 nM | 76.6 nM | – | – | Cn1cc(C(=O)Nc2cc(Cl)cc(NS(C)(=O)=O)c2)cc1-c1ncc(N2CC(C(F)(F)F)C2)cc1F [Example 524, N-(3-chloro-5-methanesulfonamidophenyl)-5-{3-fluoro-5-[3-(trifluoromethyl)azetidin-1-yl]pyridin-2-yl}-1-methyl-1H-pyrrole-3-carboxamide] | 138 nM | – |
| 8120 nM | 31.6 nM | – | – | Cn1cc(C(=O)Nc2cc(Cl)cc(NS(C)(=O)=O)c2)cc1-c1ncc(N2CC3(C2)CC(F)(F)C3)cc1F [Example 702] | 224 nM | – |
| 9760 nM | 14.4 nM | – | – | Cc1sc(C(=O)Nc2cc(Cl)cc(NS(C)(=O)=O)c2)cc1-c1ncc(N2CC(F)(F)C2)cc1C#N [Example 715] | 69.9 nM | – |
| > 10000 nM | 16.1 nM | – | – | Cc1sc(C(=O)Nc2cc(Cl)cc(NS(C)(=O)=O)c2)cc1-c1ncc(N2CC(F)(F)C2)cn1 [Example 510] | 123 nM | – |
| 6960 nM | 72.3 nM | – | – | COc1cc(N2CC(F)(F)C2)cnc1-c1cc(C(=O)Nc2cc(Cl)cc(NS(=O)(=O)CCO)c2)sc1C [Example 528] | 1130 nM | – |
| – | – | 8750 nM | 21 nM | COc1ccc(-c2cc(C(=O)Nc3cc(Cl)cc(NS(C)(=O)=O)c3)sc2C)nc1 [Example 352] | – | 50 nM |
| 6530 nM | 30 nM | – | – | Cc1cc(N2CC(F)(F)C2)cnc1-c1cc(C(=O)Nc2cc(Cl)cc(NS(C)(=O)=O)c2)sc1C [Example 537] | 82.8 nM | – |
